Columns and labels:
Experiment in all cases: Radiometric kinase panel
Assay type in all cases: biochemical
[1] = target: T1, ACVR1B (Homo sapiens, UniProt P36896)
T1 construct: purchased ProQinase GmbH (Reaction Biology); host or cells: Sf9 insect cells or E. coli (not specified per kinase)
Method: (§1) The compounds 1-5 (see Table 1) were assayed for kinase activity at ProQinase (ProQinase GmbH, Reaction Biology; Freiburg, Germany) using their commercially available radiometric kinase assay services. Briefly, the compounds were provided as solids and were dissolved to 1×10^−03 M/100% DMSO stock solutions on the day of assay. All protein kinases were provided by ProQinase and were expressed in Sf9 insect cells or in E. coli as recombinant GST-fusion proteins or His-tagged proteins, either as full-length or enzymatically active fragments. All kinases were produced from human cDNAs and purified by either GSH-affinity chromatography or immobilized metal. The purity of the protein kinases was examined by SDS-PAGE/Coomassie staining, the identity was checked by mass spectroscopy. A radiometric protein kinase assay (^33PanQinase® Activity Assay) was used for measuring the kinase activity of the protein kinase. All kinase assays were performed in 96-well FlashPlates™ from PerkinElmer (Boston, Mass., USA) in a 50 microliter reaction volume. The reaction cocktail was pipetted in four steps in the following order: 1) 25 microliter of assay buffer (standard buffer/[gamma-^33P]-ATP); 2) 10 microliter of ATP solution (in H2O); 3) 5 microliter of test compound (in 10% DMSO); 4) 10 microliter of enzyme/substrate mixture.
(§2) Compound 4 was analyzed for selectivity against a panel of other kinases at ProQinase using their commercially available radiometric kinase assay services and the methods described in Example 1.

[2] = target: T2, BLK (Homo sapiens, UniProt P51451)
T2 construct: purchased ProQinase GmbH (Reaction Biology)
Method: as §1, §2

[3] = target: T3, BRSK1 (Homo sapiens, UniProt Q8TDC3)
T3 construct: either as full-length or enzymatically active fragments; purchased ProQinase GmbH (Reaction Biology)
Method: as §1, §2

[4] = target: T4, CAMK4 (Homo sapiens, UniProt Q16566)
T4 construct: either as full-length or enzymatically active fragments; purchased ProQinase GmbH (Reaction Biology)
Method: as §1, §2

[5] = target: T5, CAMKK2 (Homo sapiens, UniProt Q96RR4)
T5 construct: either as full-length or enzymatically active fragments; purchased ProQinase GmbH (Reaction Biology); host or cells: Sf9 insect cells or E. coli (not specified per kinase)
Method: as §1, §2

[6] = target: T6, CDC7/DBF4 (Homo sapiens, UniProt O00311)
T6 construct: purchased ProQinase GmbH (Reaction Biology)
Method: as §1, §2

[7] = target: T7, CDK1/CycB1 (Homo sapiens, UniProt P06493)
T7 construct: either as full-length or enzymatically active fragments; purchased ProQinase GmbH (Reaction Biology); host or cells: Sf9 insect cells or E. coli
T7 sequence (P06493 whole entry, the tested form may be a part): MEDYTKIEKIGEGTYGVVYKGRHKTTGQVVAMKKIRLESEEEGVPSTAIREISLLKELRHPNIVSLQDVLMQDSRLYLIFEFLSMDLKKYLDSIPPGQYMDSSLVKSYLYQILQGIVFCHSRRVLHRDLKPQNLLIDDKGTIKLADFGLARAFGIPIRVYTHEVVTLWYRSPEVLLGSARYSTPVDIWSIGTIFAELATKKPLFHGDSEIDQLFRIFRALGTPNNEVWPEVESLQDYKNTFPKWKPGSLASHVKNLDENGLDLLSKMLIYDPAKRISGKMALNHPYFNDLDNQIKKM
T7 sequence (P14635 whole entry partner, the tested form may be a part): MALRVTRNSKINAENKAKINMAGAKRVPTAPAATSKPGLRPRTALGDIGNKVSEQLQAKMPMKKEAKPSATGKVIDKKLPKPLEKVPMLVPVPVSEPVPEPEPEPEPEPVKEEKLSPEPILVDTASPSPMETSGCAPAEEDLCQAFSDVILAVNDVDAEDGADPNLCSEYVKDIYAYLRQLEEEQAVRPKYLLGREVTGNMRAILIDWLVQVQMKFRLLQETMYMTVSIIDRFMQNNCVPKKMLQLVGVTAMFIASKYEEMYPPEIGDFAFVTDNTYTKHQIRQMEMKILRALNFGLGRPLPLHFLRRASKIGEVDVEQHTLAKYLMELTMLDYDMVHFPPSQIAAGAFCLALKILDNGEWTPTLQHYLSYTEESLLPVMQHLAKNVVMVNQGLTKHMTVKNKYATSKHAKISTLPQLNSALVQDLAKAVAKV
Method: as §1, §2

[8] = target: T8, CDK2/CycA2 (Homo sapiens, UniProt P24941)
T8 construct: either as full-length or enzymatically active fragments; purchased ProQinase GmbH (Reaction Biology); host or cells: Sf9 insect cells or E. coli
Method: as §1, §2

[9] = target: T9, CK1epsilon (Homo sapiens, UniProt P49674)
T9 construct: either as full-length or enzymatically active fragments; purchased ProQinase GmbH (Reaction Biology)
Method: as §1, §2

[10] = target: T10, CK1gamma1 (Homo sapiens, UniProt Q9HCP0)
T10 construct: either as full-length or enzymatically active fragments; purchased ProQinase GmbH (Reaction Biology)
Method: as §1, §2

[11] = target: T11, CK2alpha1 (Homo sapiens, UniProt P68400)
T11 construct: either as full-length or enzymatically active fragments; purchased ProQinase GmbH (Reaction Biology)
Method: as §1, §2

[12] = target: T12, CLK3 (Homo sapiens, UniProt P49761)
T12 construct: either as full-length or enzymatically active fragments; purchased ProQinase GmbH (Reaction Biology)
Method: as §1, §2

[13] = target: T13, CLK4 (Homo sapiens, UniProt Q9HAZ1)
T13 construct: purchased ProQinase GmbH (Reaction Biology)
Method: as §1, §2

[14] = target: T14, EPHB2 (Homo sapiens, UniProt P29323)
T14 construct: purchased ProQinase GmbH (Reaction Biology); host or cells: Sf9 insect cells or E. coli (not specified per kinase)
T14 sequence (P29323 19-1055): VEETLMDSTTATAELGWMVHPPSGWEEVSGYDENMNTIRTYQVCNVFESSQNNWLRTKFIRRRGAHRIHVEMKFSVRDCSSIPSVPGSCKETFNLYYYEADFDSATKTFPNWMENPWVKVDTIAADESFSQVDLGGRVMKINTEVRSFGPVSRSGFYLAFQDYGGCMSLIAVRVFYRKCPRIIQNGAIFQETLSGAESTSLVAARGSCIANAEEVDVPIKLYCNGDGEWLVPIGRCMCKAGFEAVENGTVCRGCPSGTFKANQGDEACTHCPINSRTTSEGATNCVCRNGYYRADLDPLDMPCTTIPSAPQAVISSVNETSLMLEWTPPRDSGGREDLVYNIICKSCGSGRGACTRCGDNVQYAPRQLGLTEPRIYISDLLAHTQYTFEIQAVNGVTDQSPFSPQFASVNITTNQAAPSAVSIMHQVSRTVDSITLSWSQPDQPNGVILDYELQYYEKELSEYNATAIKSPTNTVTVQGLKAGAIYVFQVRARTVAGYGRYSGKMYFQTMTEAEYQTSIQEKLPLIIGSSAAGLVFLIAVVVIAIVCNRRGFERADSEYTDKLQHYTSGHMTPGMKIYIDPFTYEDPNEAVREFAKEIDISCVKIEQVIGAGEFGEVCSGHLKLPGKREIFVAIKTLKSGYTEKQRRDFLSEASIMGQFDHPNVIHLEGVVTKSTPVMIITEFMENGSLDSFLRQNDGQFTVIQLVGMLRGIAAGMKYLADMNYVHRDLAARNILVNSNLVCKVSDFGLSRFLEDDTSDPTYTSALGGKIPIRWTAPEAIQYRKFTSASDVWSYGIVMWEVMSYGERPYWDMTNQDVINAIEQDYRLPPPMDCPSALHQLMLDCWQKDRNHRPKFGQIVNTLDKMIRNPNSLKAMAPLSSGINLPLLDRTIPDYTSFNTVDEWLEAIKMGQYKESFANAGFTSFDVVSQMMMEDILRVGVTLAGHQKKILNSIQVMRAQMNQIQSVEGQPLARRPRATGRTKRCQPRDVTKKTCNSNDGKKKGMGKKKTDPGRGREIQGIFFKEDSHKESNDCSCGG
Method: as §1, §2

[15] = target: T15, ERBB2 (Homo sapiens, UniProt P04626)
T15 construct: either as full-length or enzymatically active fragments; purchased ProQinase GmbH (Reaction Biology)
Method: as §1, §2

[16] = target: T16, FGFR4 (Homo sapiens, UniProt P22455)
T16 construct: either as full-length or enzymatically active fragments; purchased ProQinase GmbH (Reaction Biology)
T16 sequence (P22455 22-802): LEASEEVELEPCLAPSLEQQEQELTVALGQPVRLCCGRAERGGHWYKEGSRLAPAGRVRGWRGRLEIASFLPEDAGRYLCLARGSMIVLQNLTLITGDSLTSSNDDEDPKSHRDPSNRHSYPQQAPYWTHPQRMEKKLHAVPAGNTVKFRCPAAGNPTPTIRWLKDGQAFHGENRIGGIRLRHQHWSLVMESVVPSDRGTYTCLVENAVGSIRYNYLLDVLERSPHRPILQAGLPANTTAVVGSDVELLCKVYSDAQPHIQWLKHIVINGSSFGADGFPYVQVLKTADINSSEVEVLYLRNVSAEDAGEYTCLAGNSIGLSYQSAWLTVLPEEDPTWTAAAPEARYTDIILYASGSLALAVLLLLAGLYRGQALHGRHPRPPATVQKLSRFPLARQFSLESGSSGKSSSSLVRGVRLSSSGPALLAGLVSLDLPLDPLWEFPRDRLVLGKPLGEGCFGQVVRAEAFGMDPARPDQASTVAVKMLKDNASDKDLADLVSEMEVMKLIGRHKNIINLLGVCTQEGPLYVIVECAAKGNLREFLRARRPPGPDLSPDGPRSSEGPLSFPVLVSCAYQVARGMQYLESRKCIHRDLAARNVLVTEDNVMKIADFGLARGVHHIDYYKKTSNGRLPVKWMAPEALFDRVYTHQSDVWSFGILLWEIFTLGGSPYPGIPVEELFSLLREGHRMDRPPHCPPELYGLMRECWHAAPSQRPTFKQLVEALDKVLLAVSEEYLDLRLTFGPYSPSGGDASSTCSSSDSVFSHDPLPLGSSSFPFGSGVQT
Method: as §1, §2

[17] = target: T17, GRK3 (Homo sapiens, UniProt P35626)
T17 construct: either as full-length or enzymatically active fragments; purchased ProQinase GmbH (Reaction Biology)
T17 sequence (P35626 whole entry, the tested form may be a part): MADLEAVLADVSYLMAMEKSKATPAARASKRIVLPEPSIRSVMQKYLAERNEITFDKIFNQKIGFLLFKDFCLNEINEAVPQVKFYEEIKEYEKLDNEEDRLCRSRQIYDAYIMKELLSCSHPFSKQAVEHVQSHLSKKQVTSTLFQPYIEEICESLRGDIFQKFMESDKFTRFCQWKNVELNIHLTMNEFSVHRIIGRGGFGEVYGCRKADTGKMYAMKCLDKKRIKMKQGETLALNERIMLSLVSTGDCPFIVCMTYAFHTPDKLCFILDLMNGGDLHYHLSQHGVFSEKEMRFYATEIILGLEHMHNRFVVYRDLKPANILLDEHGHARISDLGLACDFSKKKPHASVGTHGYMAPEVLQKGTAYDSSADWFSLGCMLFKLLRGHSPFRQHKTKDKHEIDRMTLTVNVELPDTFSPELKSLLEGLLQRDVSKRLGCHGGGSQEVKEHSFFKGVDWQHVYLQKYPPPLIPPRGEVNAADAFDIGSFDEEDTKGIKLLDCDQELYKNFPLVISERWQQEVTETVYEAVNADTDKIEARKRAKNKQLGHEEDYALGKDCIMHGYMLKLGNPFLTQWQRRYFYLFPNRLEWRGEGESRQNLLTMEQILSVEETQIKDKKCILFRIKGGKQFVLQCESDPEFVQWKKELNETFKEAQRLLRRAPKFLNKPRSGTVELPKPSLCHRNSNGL
Method: as §1, §2

[18] = target: T18, GRK6 (Homo sapiens, UniProt P43250)
T18 construct: purchased ProQinase GmbH (Reaction Biology)
Method: as §1, §2

[19] = target: T19, ITK (Homo sapiens, UniProt Q08881)
T19 construct: purchased ProQinase GmbH (Reaction Biology); host or cells: Sf9 insect cells or E. coli (not specified per kinase)
Method: as §1, §2

[20] = target: T20, MAP4K5 (Homo sapiens, UniProt Q9Y4K4)
T20 construct: purchased ProQinase GmbH (Reaction Biology)
Method: as §1, §2

[21] = target: T21, MARK4 (Homo sapiens, UniProt Q96L34)
T21 construct: purchased ProQinase GmbH (Reaction Biology)
T21 sequence (Q96L34 whole entry): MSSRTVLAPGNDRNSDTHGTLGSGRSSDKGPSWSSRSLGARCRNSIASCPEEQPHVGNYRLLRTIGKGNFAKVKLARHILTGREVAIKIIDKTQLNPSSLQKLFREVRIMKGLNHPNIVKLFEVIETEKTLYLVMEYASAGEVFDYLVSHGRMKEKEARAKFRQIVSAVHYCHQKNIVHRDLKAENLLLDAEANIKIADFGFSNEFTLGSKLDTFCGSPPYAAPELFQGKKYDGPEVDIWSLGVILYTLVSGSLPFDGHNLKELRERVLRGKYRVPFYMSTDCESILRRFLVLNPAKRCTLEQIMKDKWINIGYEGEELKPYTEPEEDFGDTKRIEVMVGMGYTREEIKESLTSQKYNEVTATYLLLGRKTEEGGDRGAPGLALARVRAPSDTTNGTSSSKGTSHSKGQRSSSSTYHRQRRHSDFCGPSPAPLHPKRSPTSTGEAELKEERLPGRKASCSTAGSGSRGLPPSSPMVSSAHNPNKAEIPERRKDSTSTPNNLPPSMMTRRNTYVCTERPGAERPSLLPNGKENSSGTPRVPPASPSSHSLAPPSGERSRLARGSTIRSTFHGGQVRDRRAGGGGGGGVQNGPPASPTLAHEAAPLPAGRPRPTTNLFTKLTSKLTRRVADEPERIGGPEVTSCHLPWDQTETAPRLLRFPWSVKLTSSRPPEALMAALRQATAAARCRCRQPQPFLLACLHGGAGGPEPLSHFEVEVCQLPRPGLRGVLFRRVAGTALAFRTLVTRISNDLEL
Method: as §1, §2

[22] = target: T22, MEKK3 (Homo sapiens, UniProt Q99759)
T22 construct: purchased ProQinase GmbH (Reaction Biology); host or cells: Sf9 insect cells or E. coli (not specified per kinase)
Method: as §1, §2

[23] = target: T23, MYLK2 (Homo sapiens, UniProt Q9H1R3)
T23 construct: either as full-length or enzymatically active fragments; purchased ProQinase GmbH (Reaction Biology); host or cells: Sf9 insect cells or E. coli
Method: as §1, §2

[24] = target: T24, NEK4 (Homo sapiens, UniProt P51957)
T24 construct: purchased ProQinase GmbH (Reaction Biology)
Method: as §1, §2

[25] = target: T25, NEK7 (Homo sapiens, UniProt Q8TDX7)
T25 construct: either as full-length or enzymatically active fragments; purchased ProQinase GmbH (Reaction Biology); host or cells: Sf9 insect cells or E. coli
Method: as §1, §2

[26] = target: T26, PDGFRbeta (Homo sapiens, UniProt P09619)
T26 construct: either as full-length or enzymatically active fragments; purchased ProQinase GmbH (Reaction Biology)
Method: as §1, §2

[27] = target: T27, PKN3 (Homo sapiens, UniProt Q6P5Z2)
T27 construct: purchased ProQinase GmbH (Reaction Biology)
Method: as §1, §2

[28] = target: T28, RIPK2 (Homo sapiens, UniProt O43353)
T28 construct: either as full-length or enzymatically active fragments; purchased ProQinase GmbH (Reaction Biology)
Method: as §1, §2

[29] = target: T29, RIPK5 (Homo sapiens, UniProt Q6XUX3)
T29 construct: purchased ProQinase GmbH (Reaction Biology)
Method: as §1, §2

[30] = target: T30, SGK1 (Homo sapiens, UniProt O00141)
T30 construct: purchased ProQinase GmbH (Reaction Biology)
T30 sequence (O00141 whole entry): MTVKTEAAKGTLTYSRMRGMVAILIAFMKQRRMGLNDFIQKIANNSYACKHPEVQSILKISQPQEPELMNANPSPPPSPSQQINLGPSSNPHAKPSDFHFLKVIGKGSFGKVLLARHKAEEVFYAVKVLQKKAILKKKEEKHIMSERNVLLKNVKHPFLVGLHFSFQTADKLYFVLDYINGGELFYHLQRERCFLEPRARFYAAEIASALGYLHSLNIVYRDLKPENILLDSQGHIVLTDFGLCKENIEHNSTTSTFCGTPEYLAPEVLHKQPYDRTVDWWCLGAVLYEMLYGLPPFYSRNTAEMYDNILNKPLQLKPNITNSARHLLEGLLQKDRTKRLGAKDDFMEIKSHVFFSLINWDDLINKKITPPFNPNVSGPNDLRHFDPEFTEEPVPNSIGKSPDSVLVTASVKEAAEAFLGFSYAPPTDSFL
Method: as §1, §2

T1 sequence (P36896 24-505): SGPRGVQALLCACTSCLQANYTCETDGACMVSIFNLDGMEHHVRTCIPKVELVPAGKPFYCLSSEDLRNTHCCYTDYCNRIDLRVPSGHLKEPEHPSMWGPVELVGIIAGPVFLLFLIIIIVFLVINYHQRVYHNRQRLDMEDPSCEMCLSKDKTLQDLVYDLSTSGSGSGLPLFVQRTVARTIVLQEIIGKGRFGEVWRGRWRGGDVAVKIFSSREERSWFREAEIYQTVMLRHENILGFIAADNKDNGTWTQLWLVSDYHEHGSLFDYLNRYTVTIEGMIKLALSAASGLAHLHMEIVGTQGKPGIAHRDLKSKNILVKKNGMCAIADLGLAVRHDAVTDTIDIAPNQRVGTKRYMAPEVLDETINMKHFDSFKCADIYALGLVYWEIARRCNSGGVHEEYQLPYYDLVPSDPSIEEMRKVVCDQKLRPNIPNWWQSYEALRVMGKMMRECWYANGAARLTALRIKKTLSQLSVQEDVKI

C=CC(=O)Nc1ccc(C(=O)N2CC[C@@H](Nc3ncc(C#N)cn3)C2)cc1 [Compound 4, (R)-N-(4-(3-((5-cyanopyrimidin-2-yl)amino)pyrrolidine-1-carbonyl)phenyl)acrylamide]
inhibition at 1 µM [1]: 1%
inhibition at 1 µM [2]: -2%
inhibition at 1 µM [3]: -4%
inhibition at 1 µM [4]: 8%
inhibition at 1 µM [5]: 9%
inhibition at 1 µM [6]: -2%
inhibition at 1 µM [7]: 13%
inhibition at 1 µM [8]: 15%
inhibition at 1 µM [9]: -13%
inhibition at 1 µM [10]: -11%
inhibition at 1 µM [11]: -4%
inhibition at 1 µM [12]: -9%
inhibition at 1 µM [13]: -2%
inhibition at 1 µM [14]: 1%
inhibition at 1 µM [15]: 5%
inhibition at 1 µM [16]: 2%
inhibition at 1 µM [17]: 5%
inhibition at 1 µM [18]: 0%
inhibition at 1 µM [19]: 1%
inhibition at 1 µM [20]: 0%
inhibition at 1 µM [21]: -1%
inhibition at 1 µM [22]: 1%
inhibition at 1 µM [23]: 12%
inhibition at 1 µM [24]: -1%
inhibition at 1 µM [25]: -15%
inhibition at 1 µM [26]: 6%
inhibition at 1 µM [27]: -2%
inhibition at 1 µM [28]: 5%
inhibition at 1 µM [29]: 0%
inhibition at 1 µM [30]: -2%
